{"source": "patent US20230085686A1", "about": "“Multicompartement hydrogel fibre their preparation and uses thereof” (Association For The Advancement Of Tissue Engineering And …, priority 2020, published 2023)", "system": "Melanoma cells of the Sk-MEL-28 cell line", "assay": "Drug test with doxorubicin in modular cancer/BM/stroma ribbon fibres, Calcein AM / Propidium Iodide viability", "format": "cell-based, human", "details": "1 μM Doxorubicin, 24 h treatment", "text": "Melanoma cells of the Sk-MEL-28 (ATCC) cell line were encapsulated in the GG/GelMA compartment and human dermal fibroblasts (hDFs) were encapsulated in the GG compartment, both representing the cancer and stroma, respectively, separated by the basement-membrane-mimicking GelTrex/HA. […] In order to track the different cell types, these were stained with CellBrite Green and Orange (Biotium) according to the manufacturer's instructions. […] With this model, melanoma cells were included in the cancer compartment, and dermal fibroblasts within the stromal compartment, both separated by a GelTrex BM in a unique melanoma-on-a-fibre structure. Fibres with tracked cells were observed under an Inverted Confocal Laser Scanning Microscope (Leica), throughout one week of culture.\nFor the drug tests, fibroblasts were stained blue prior to encapsulation using CellTracker blue CMAC Dye (7-amino 4-chloromethylcoumarin, Molecular Probes) according to manufacturer's instructions. These were then integrated in the fibres together with the cancer cells, and all modular fibres were produced. 24 h after fabrication, fibres were incubated with either culture medium (no treatment) or culture medium containing 1 μM of Doxorubicin (Carbosynth). One day after treatment, samples were incubated with medium containing 1:1000 dilution of Calcein AM (Thermofisher) and 1 μg/mL Propidium Iodide (Molecular Probes) for 30 mins at 37° C., 5% CO2, for viability assessment. Images of the fibres were acquired in the Axio Observer inverted Microscope (Zeiss), and a cell profiler pipeline was used to derive the numbers of live and dead cells using the blue staining to distinguish fibroblasts from melanoma cells. Similarly, 2D controls were obtained by simply seeding the cells individually or in co-culture in 24 well-plates at a density of 20×10^3 cells per well (10×10^3 cells of each type in the case of co-cultures). 2D controls were then processed in the same way as the fibres. […]"}
{"compound": "COc1cccc2c1C(=O)c1c(O)c3c(c(O)c1C2=O)C[C@@](O)(C(=O)CO)C[C@@H]3O[C@H]1C[C@H](N)[C@H](O)[C@H](C)O1", "note": "[Doxorubicin]", "values": [{"measurement": "cancer cell viability vs. the control", "setting": "cancer-only fibres", "result": "significant drop in viability"}, {"measurement": "cancer cell viability vs. the control", "setting": "cancer/stroma fibres (no BM)", "result": "no longer significant"}, {"measurement": "numbers of live cancer cells upon treatment", "setting": "full cancer/BM/stroma fibres", "result": "numbers of live cancer cells can improve"}]}
